Measurements: the supplement of paper PMC10307832

Assays:
Test in all cases: relative viability (nuclei count vs DMSO), 5 days (fraction); higher = more cells survive
BAY61-3606 + Tozasertib = compound: COC1=C(C=C(C=C1)C2=CC3=NC=CN3C(=N2)NC4=C(C=CC=N4)C(=O)N)OC [BAY61-3606] + Cc1cc(Nc2cc(N3CCN(C)CC3)nc(Sc3ccc(NC(=O)C4CC4)cc3)n2)n[nH]1 [Tozasertib] (partner 0.1 µM)
Summary of the method: (§1)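 Lung cancer cell lines, seeded in 1536-well plates, were treated the following day by pin tool with a single drug or with five library-drug doses (not always all listed) in √10 steps on top of a fixed anchor-drug dose. Cells were fixed and nuclei stained in one step after 5 days, and nuclei were counted. Relative viability is the nuclei count for treated wells divided by that for vehicle wells, reported as medians of duplicate plates.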

BAY61-3606 + Phenformin = compound: COC1=C(C=C(C=C1)C2=CC3=NC=CN3C(=N2)NC4=C(C=CC=N4)C(=O)N)OC [BAY61-3606] + N=C(N)NC(=N)NCCc1ccccc1 [Phenformin] (partner 250 µM)
Summary of the method: as §1

Doxorubicin + Bortezomib = compound: COc1cccc2c1C(=O)c1c(O)c3c(c(O)c1C2=O)C[C@@](O)(C(=O)CO)C[C@@H]3O[C@H]1C[C@H](N)[C@H](O)[C@H](C)O1 [Doxorubicin] + CC(C)C[C@H](NC(=O)[C@H](Cc1ccccc1)NC(=O)c1cnccn1)B(O)O [Bortezomib] (partner 0.002 µM)
Summary of the method: as §1

Doxorubicin + Lapatinib = compound: COc1cccc2c1C(=O)c1c(O)c3c(c(O)c1C2=O)C[C@@](O)(C(=O)CO)C[C@@H]3O[C@H]1C[C@H](N)[C@H](O)[C@H](C)O1 [Doxorubicin] + CS(=O)(=O)CCNCc1ccc(-c2ccc3ncnc(Nc4ccc(OCc5cccc(F)c5)c(Cl)c4)c3c2)o1 [Lapatinib] (partner 2 µM)
Summary of the method: as §1

Cell Line | relative viability (BAY61-3606 + Tozasertib; first compound 0.02 µM) | relative viability (BAY61-3606 + Tozasertib; first compound 0.06325 µM) | relative viability (BAY61-3606 + Tozasertib; first compound 0.2 µM) | relative viability (BAY61-3606 + Tozasertib; first compound 0.6325 µM) | relative viability (BAY61-3606 + Tozasertib; first compound 2 µM) | relative viability (BAY61-3606 + Phenformin; first compound 0.02 µM) | relative viability (BAY61-3606 + Phenformin; first compound 0.06325 µM) | relative viability (BAY61-3606 + Phenformin; first compound 0.2 µM) | relative viability (BAY61-3606 + Phenformin; first compound 0.6325 µM) | relative viability (BAY61-3606 + Phenformin; first compound 2 µM) | relative viability (Doxorubicin + Bortezomib; first compound 0.001 µM) | relative viability (Doxorubicin + Bortezomib; first compound 0.003162 µM) | relative viability (Doxorubicin + Bortezomib; first compound 0.01 µM) | relative viability (Doxorubicin + Bortezomib; first compound 0.03162 µM) | relative viability (Doxorubicin + Bortezomib; first compound 0.1 µM) | relative viability (Doxorubicin + Lapatinib; first compound 0.001 µM) | relative viability (Doxorubicin + Lapatinib; first compound 0.003162 µM) | relative viability (Doxorubicin + Lapatinib; first compound 0.01 µM) | relative viability (Doxorubicin + Lapatinib; first compound 0.03162 µM) | relative viability (Doxorubicin + Lapatinib; first compound 0.1 µM)
NCI-H2023 | 0.359 | 0.225 | 0.232 | 0.197 | 0.118 | 0.491 | 0.369 | 0.386 | 0.438 | 0.322 | 0.456 | 0.889 | 0.69 | 0.152 | 0.0962 | 0.226 | 0.734 | 0.252 | 0.134 | 0.11
NCI-H2085 | 0.809 | 0.531 | 0.546 | 0.481 | 0.345 | 0.793 | 0.755 | 0.717 | 0.757 | 0.64 | 0.903 | 1.05 | 0.907 | 0.709 | 0.716 | 0.745 | 0.85 | 0.763 | 0.652 | 0.608
NCI-H2087 | 0.223 | 0.253 | 0.166 | 0.176 | 0.157 | 0.432 | 0.463 | 0.44 | 0.411 | 0.384 | 0.6 | 0.7 | 0.869 | 0.678 | 0.55 | 0.749 | 1.01 | 0.815 | 0.759 | 0.529
NCI-H2126 | 0.895 | 0.485 | 0.801 | 0.945 | 0.331 | 0.547 | 0.496 | 0.524 | 0.491 | 0.47 | 1.08 | 1.12 | 1.1 | 1.1 | 1.13 | 0.766 | 0.796 | 0.76 | 0.728 | 0.773
NCI-H2228 | 0.274 | 0.173 | 0.147 | 0.16 | 0.159 | 0.37 | 0.294 | 0.368 | 0.276 | 0.26 | 0.88 | 1.05 | 0.617 | 0.254 | 0.124 | 0.971 | 0.962 | 0.65 | 0.187 | 0.119
NCI-H2347 | 0.531 | 0.384 | 0.394 | 0.427 | 0.32 | 0.563 | 0.359 | 0.544 | 0.455 | 0.538 | 1.05 | 0.697 | 0.955 | 0.908 | 0.692 | 0.988 | 1.17 | 0.975 | 0.756 | 0.781
NCI-H2405 | 0.698 | 0.426 | 0.479 | 0.491 | 0.287 | 0.429 | 0.259 | 0.383 | 0.38 | 0.41 | 1 | 1.01 | 0.973 | 0.994 | 0.994 | – | 1.07 | 1.05 | 0.639 | 0.301
NCI-H3122 | 0.456 | 0.262 | 0.377 | 0.438 | 0.305 | 0.418 | 0.308 | 0.386 | 0.42 | 0.384 | 1.04 | 0.97 | 1.02 | 1.01 | 0.957 | 1.02 | 1 | 1.02 | 1 | 0.958
PC-3 [JPC-3] | – | 0.891 | 0.889 | 0.837 | 0.613 | – | 0.491 | 0.476 | 0.454 | 0.463 | 0.81 | 0.926 | 0.863 | 0.79 | 0.8 | 0.455 | 0.444 | 0.46 | 0.451 | 0.448
PC-14 | 0.597 | 0.637 | 0.5 | 0.568 | 0.174 | 0.752 | 0.357 | 0.579 | 0.532 | 0.536 | 0.775 | 0.964 | 0.861 | 0.979 | 0.94 | 0.353 | 0.351 | 0.293 | 0.286 | 0.302
RERF-LC-KJ | 0.532 | 0.435 | 0.399 | 0.368 | 0.279 | 0.417 | 0.404 | 0.424 | 0.467 | 0.343 | 1.03 | 1.2 | 1.03 | 0.809 | 0.967 | 0.905 | 0.817 | 0.863 | 0.759 | 0.815
SK-LU-1 | 0.315 | 0.282 | 0.264 | 0.231 | 0.2 | 0.563 | 0.451 | 0.569 | 0.506 | 0.284 | – | 1.19 | 1.25 | 0.945 | 0.671 | 0.822 | 1.09 | 0.669 | 0.523 | 0.55
SW 1573 | 0.168 | 0.174 | 0.154 | 0.197 | 0.146 | 0.288 | 0.336 | 0.342 | 0.328 | 0.166 | 0.98 | 1.1 | 0.817 | 0.466 | 0.339 | 0.978 | 1.21 | 1.15 | 0.75 | 0.559
